Like-named read-outs stand apart in the source and are kept apart here.
System: Myotonic Dystrophy 1 affected patient fibroblasts (Coriell GM04602; 1600 CTG repeats)
Assay: DM1 foci reduction assay (CAG10-Cy3 FISH, average foci per nucleus)
Type: cell-based
Settings: Homo sapiens, Fibroblast
Summary of the method: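 Read-out is mean nuclear foci per well from CAG10-Cy3 FISH (5 nM probe, overnight 37 °C) with DAPI nuclei, 4 fields per well at 20×. Compounds ran 48 h in 8-point, 3-fold series topping at 3 μM on 1600-CTG GM04602 fibroblasts, alongside GM07492 wild-type cells.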

[1] = DM1 fibroblasts, 48 h treatment, 8-point dose response, 3 μM top dose, read-out: Foci Reduction in Fibroblast EC50, 48 h
[2] = 48 h, read-out: Foci Reduction in Fibroblast EC50, 48 h (nM)

Structure (SMILES) | EC50 [1] [nM] | EC50 [2] [nM]
CN(C)[C@H]1CN(C2CCc3cccc(F)c32)C[C@@H]1c1ccc(N2CCN(C(=O)COCCOCCOCCOCCOCCNC(=O)CCNC(=O)c3nc(NC(=O)c4cc(NC(=O)CCNC(=O)c5nc(NC(=O)CCCNC(=O)c6cc(NC(=O)c7nc(NC(=O)CCNC(=O)c8cc(NC(=O)c9nccn9C)cn8C)cn7C)cn6C)cn5C)cn4C)cn3C)CC2)cc1 (stereo partly drawn) [Compound 146] | > 500 | –
CCN(CC)CCCC[C@H](NC(=O)[C@H](CC(C)C)NC(=O)[C@H](C)NC(=O)[C@H](Cc1ccccc1)NC(=O)c1ccc(C(C)(C)C)cc1)C(=O)N[C@@H](CO)C(=O)NCCOCCOCCOCCOCCOCCNC(=O)c1nc(NC(=O)CCNC(=O)c2cc(NC(=O)c3nc(NC(=O)CCCNC(=O)c4cc(NC(=O)c5nc(NC(=O)c6cc(NC(=O)c7cc(NC(=O)c8nccn8C)cn7C)cn6C)cn5C)cn4C)cn3C)cn2C)cn1C [Compound 106] | – | > 500
CCN(CC)CCCC[C@H](NC(=O)[C@H](CC(C)C)NC(=O)[C@H](C)NC(=O)[C@H](Cc1ccccc1)NC(=O)c1ccc(C(C)(C)C)cc1)C(=O)N[C@@H](CO)C(=O)NCCOCCOCCOCCOCCN1CCN(C(=O)CCNC(=O)c2nc(NC(=O)c3cc(NC(=O)CCNC(=O)c4nc(NC(=O)CCCNC(=O)c5cc(NC(=O)c6nc(NC(=O)CCNC(=O)c7cc(NC(=O)c8nccn8C)cn7C)cn6C)cn5C)cn4C)cn3C)cn2C)CC1 [Compound 187] | – | 100 to 500
Cc1nc(CCC(=O)NCCOCCOCCOCCOCCOCCOCCOCCOCCOCCOCCOCCOCCOCCOCCOCCNC(=O)CCNC(=O)c2nc(NC(=O)c3cc(NC(=O)CCNC(=O)c4nc(NC(=O)CCCNC(=O)c5cc(NC(=O)c6nc(NC(=O)CCNC(=O)c7cc(NC(=O)c8nccn8C)cn7C)cn6C)cn5C)cn4C)cn3C)cn2C)ccc1-c1cnc(NCc2c(F)ccc3c2CCO3)n2cnnc12 [Compound 63] | > 500 | –
Cn1cc(NC(=O)c2nc(NC(=O)CCNC(=O)c3cc(NC(=O)c4nccn4C)cn3C)cn2C)cc1C(=O)NCCCC(=O)Nc1cn(C)c(C(=O)NCCC(=O)Nc2cc(C(=O)Nc3cn(C)c(C(=O)NCCC(=O)NCCOCCOCCOCCOCCOCCOc4ccc(NC(=O)CCCCCCC(=O)NO)cc4)n3)n(C)c2)n1 [Compound 129, N-hydroxy-N′-{4-[(17-{3-[(1-methyl-4-{1-methyl-4-[3-({1-methyl-4-[4-({1-methyl-4-[1-methyl-4-(3-{[1-methyl-4-(1-methylimidazole-2-amido)pyrrol-2-yl]formamido}propanamido)imidazole-2-amido]pyrrol-2-yl}formamido)butanamido]imidazol-2-yl}formamido)propanamido]pyrrole-2-amido}imidazol-2-yl)formamido]propanamido}-3,6,9,12,15-pentaoxaheptadecan-1-yl)oxy]phenyl}octanediamide] | > 500 | –
CCN(CC)CCCC[C@H](NC(=O)[C@H](CC(C)C)NC(=O)[C@H](C)NC(=O)[C@H](Cc1ccccc1)NC(=O)c1ccc(C(C)(C)C)cc1)C(=O)N[C@@H](CO)C(=O)NCCOCCOCCOCCOCCOCCNC(=O)CCNC(=O)c1nc(NC(=O)c2cc(NC(=O)CCNC(=O)c3nc(NC(=O)[C@H](N)CCNC(=O)c4cc(NC(=O)c5nc(NC(=O)CCNC(=O)c6cc(NC(=O)c7nccn7C)cn6C)cn5C)cn4C)cn3C)cn2C)cn1C [Compound 101] | – | 100 to 500
CCN(CC)CCCC[C@H](NC(=O)OC(C)(C)C)C(=O)N[C@@H](CO)C(=O)NCCOCCOCCOCCOCCOCCNC(=O)CCNC(=O)c1nc(NC(=O)c2cc(NC(=O)CCNC(=O)c3nc(NC(=O)CCCNC(=O)c4cc(NC(=O)c5nc(NC(=O)CCNC(=O)c6cc(NC(=O)c7nccn7C)cn6C)cn5C)cn4C)cn3C)cn2C)cn1C [Compound 157] | – | 100 to 500
CCCNC(=O)CCNC(=O)c1nc(NC(=O)c2nc(NC(=O)CCNC(=O)c3nc(NC(=O)[C@@H](CCNC(=O)c4cc(NC(=O)c5nc(NC(=O)CCNC(=O)c6cc(NC(=O)c7nccn7C)cn6C)cn5C)cn4C)NC(=O)COCCOCCOCCOCCOCCNC(=O)[C@H](CO)NC(=O)[C@H](CCCCN(CC)CC)NC(=O)[C@H](CC(C)C)NC(=O)[C@H](C)NC(=O)[C@H](Cc4ccccc4)NC(=O)c4ccc(C(C)(C)C)cc4)cn3C)cn2C)cn1C [Compound 137] | – | < 100
CCN(CC)CCCC[C@H](NC(=O)[C@H](CC(C)C)NC(=O)[C@H](C)NC(=O)[C@H](Cc1ccccc1)NC(=O)c1ccc(C(C)(C)C)cc1)C(=O)N[C@@H](CO)C(=O)NCCOCCOCCOCCOCCOCCNC(=O)c1nc(NC(=O)c2cc(NC(=O)CCNC(=O)c3nc(NC(=O)CCCNC(=O)c4nc(NC(=O)c5nc(CC(=O)CCNC(=O)c6cc(NC(=O)c7nccn7C)cn6C)cn5C)cn4C)cn3C)cn2C)cn1C [Compound 103] | – | < 100
CCN(CC)CCCC[C@H](NC(=O)[C@H](CC(C)C)NC(=O)[C@H](C)NC(=O)[C@H](Cc1ccccc1)NC(=O)c1ccc(C(C)(C)C)cc1)C(=O)N[C@@H](CO)C(=O)NCCOCCOCCOCCOCCOCCNC(=O)c1cc(NC(=O)c2cc(NC(=O)c3nc(NC(=O)c4cc(NC(=O)[C@@H](N)CCNC(=O)c5nc(NC(=O)CCNC(=O)c6cc(NC(=O)c7nccn7C)cn6C)cn5C)cn4C)cn3C)cn2C)cn1C [Compound 56] | – | > 500
CCN(CC)CCCC[C@H](NC(=O)CCCCNC(=O)c1cnn(-c2ccc(C(C)(C)C)cc2)c1)C(=O)N[C@@H](CO)C(=O)NCCOCCOCCOCCOCCOCCNC(=O)CCNC(=O)c1nc(NC(=O)c2cc(NC(=O)CCNC(=O)c3nc(NC(=O)CCCNC(=O)c4cc(NC(=O)c5nc(NC(=O)CCNC(=O)c6cc(NC(=O)c7nccn7C)cn6C)cn5C)cn4C)cn3C)cn2C)cn1C [Compound 151] | – | > 500
CCN(CC)CCCC[C@H](NC(=O)[C@H](CC(C)C)NC(=O)[C@H](C)NC(=O)[C@H](Cc1ccccc1)NC(=O)c1ccc(C(C)(C)C)cc1)C(=O)N[C@@H](CO)C(=O)N1CCC(N2CCN(CCOCCOCCOCCOCCNC(=O)CCNC(=O)c3nc(NC(=O)c4cc(NC(=O)CCNC(=O)c5nc(NC(=O)CCCNC(=O)c6cc(NC(=O)c7nc(NC(=O)CCNC(=O)c8cc(NC(=O)c9nccn9C)cn8C)cn7C)cn6C)cn5C)cn4C)cn3C)CC2)CC1 [Compound 184] | – | > 500
CCCCN(Cc1ccc(C(=O)NO)cc1)C(=O)Nc1ccc(OCc2cn(CCOCCOCCOCCOCCOCCOCCNC(=O)CCNC(=O)c3nc(NC(=O)c4cc(NC(=O)CCNC(=O)c5nc(NC(=O)CCCNC(=O)c6cc(NC(=O)c7nc(NC(=O)CCNC(=O)c8cc(NC(=O)c9nccn9C)cn8C)cn7C)cn6C)cn5C)cn4C)cn3C)nn2)cc1 [Compound 128] | > 500 | –
CCN(CC)CCCC[C@H](NC(=O)[C@H](CC(C)C)NC(=O)[C@H](C)NC(=O)[C@H](Cc1ccccc1)NC(=O)c1ccc(C(C)(C)C)cc1)C(=O)N[C@@H](CO)C(=O)N1CCC(C#CC#CC2CCN(CCOCCNC(=O)CCNC(=O)c3nc(NC(=O)c4cc(NC(=O)CCNC(=O)c5nc(NC(=O)CCCNC(=O)c6cc(NC(=O)c7nc(NC(=O)CCNC(=O)c8cc(NC(=O)c9nccn9C)cn8C)cn7C)cn6C)cn5C)cn4C)cn3C)CC2)CC1 [Compound 181] | – | < 100
CCN(CC)CCCC[C@H](NC(=O)[C@H](CC(C)C)NC(=O)[C@H](C)NC(=O)[C@H](Cc1ccccc1)NC(=O)c1ccc(C(C)(C)C)cc1)C(=O)N[C@@H](CO)C(=O)Nc1ccc(OCCOCCOCCOCCOCCNC(=O)CCNC(=O)c2nc(NC(=O)c3cc(NC(=O)CCNC(=O)c4nc(NC(=O)CCCNC(=O)c5cc(NC(=O)c6nc(NC(=O)CCNC(=O)c7cc(NC(=O)c8nccn8C)cn7C)cn6C)cn5C)cn4C)cn3C)cn2C)cc1 [Compound 177] | – | < 100
CC(C)C[C@H](NC(=O)[C@H](C)NC(=O)[C@H](Cc1ccccc1)NC(=O)c1ccc(C(C)(C)C)cc1)C(=O)N[C@@H](CCCCN(C)C1CC2CCC1C2)C(=O)N[C@@H](CO)C(=O)NCCOCCOCCOCCOCCOCCNC(=O)c1cc(NC(=O)c2cc(NC(=O)c3nc(NC(=O)c4cc(NC(=O)[C@@H](N)CCNC(=O)c5nc(NC(=O)CCNC(=O)c6cc(NC(=O)c7nccn7C)cn6C)cn5C)cn4C)cn3C)cn2C)cn1C (stereo partly drawn) [Compound 84] | – | > 500
CCN(CC)CCCC[C@H](NC(=O)[C@H](CC(C)C)NC(=O)[C@H](C)NC(=O)[C@H](Cc1ccccc1)NC(=O)c1ccc(C(C)(C)C)cc1)C(=O)N[C@@H](CO)C(=O)NCCOCCOCCOCCOCCOCCOCCOCCOCCOCCOCCNC(=O)CCNC(=O)c1nc(NC(=O)c2cc(NC(=O)CCNC(=O)c3nc(NC(=O)CCCNC(=O)c4cc(NC(=O)c5nc(NC(=O)CCNC(=O)c6cc(NC(=O)c7nccn7C)cn6C)cn5C)cn4C)cn3C)cn2C)cn1C [Compound 26] | – | 100 to 500
CCN(CC)CCCC[C@H](NC(=O)COCCNC(=O)c1cnn(-c2ccc(C(C)(C)C)cc2)c1)C(=O)N[C@@H](CO)C(=O)NCCOCCOCCOCCOCCOCCNC(=O)CCNC(=O)c1nc(NC(=O)c2cc(NC(=O)CCNC(=O)c3nc(NC(=O)CCCNC(=O)c4cc(NC(=O)c5nc(NC(=O)CCNC(=O)c6cc(NC(=O)c7nccn7C)cn6C)cn5C)cn4C)cn3C)cn2C)cn1C [Compound 150] | – | > 500
CC(=O)c1cc(-c2ccccc2S(C)(=O)=O)c2cc(OCCOCCOCCNC(=O)CCNC(=O)c3nc(NC(=O)c4cc(NC(=O)CCNC(=O)c5nc(NC(=O)CCCNC(=O)c6cc(NC(=O)c7nc(NC(=O)CCNC(=O)c8cc(NC(=O)c9nccn9C)cn8C)cn7C)cn6C)cn5C)cn4C)cn3C)ccn12 [Compound 168] | > 500 | –
CCN(c1cc(-c2ccc(CN3CCN(CCCCCCCNC(=O)CCNC(=O)c4nc(NC(=O)c5cc(NC(=O)CCNC(=O)c6nc(NC(=O)CCCNC(=O)c7cc(NC(=O)c8nc(NC(=O)CCNC(=O)c9cc(NC(=O)c%10nccn%10C)cn9C)cn8C)cn7C)cn6C)cn5C)cn4C)CC3)cc2)cc(C(=O)NCc2c(C)cc(C)[nH]c2=O)c1C)C1CCOCC1 [Compound 164] | > 500 | –
COc1c(OCCOCCOCCOCCOCCOCCNC(=O)CCNC(=O)c2nc(NC(=O)c3cc(NC(=O)CCNC(=O)c4nc(NC(=O)CCCNC(=O)c5cc(NC(=O)c6nc(NC(=O)CCNC(=O)c7cc(NC(=O)c8nccn8C)cn7C)cn6C)cn5C)cn4C)cn3C)cn2C)cccc1C(=O)N1CCN(C(=O)COc2cc(C)c(NC(N)=O)c(C)c2)CC1 [Compound 93] | > 500 | –

Reference: patent US20240166693A1, “METHODS AND COMPOUNDS FOR MODULATING MYOTONIC DYSTROPY 1” (Design Therapeutics, Inc., priority 2020, published 2024)
